This assay relates to Plasmodium berghei. The assay can be described thus: Luciferase/luciferin-expressing antifolate-resistant parasites were used to infect a culture of HepG2 cells that were pre-incubated with compounds. Infected hepatocytes emit light due to the luciferase reaction. Assay results are presented as the percent inhibition of light emission compared to control. […]. In kind it is functional. The following applies: sporozoite; for IC90: read-out: LUCIFERASE INFECTION ASSAY - IC90.

The text below walks through data of ChEMBL document CHEMBL4483862, “Open-source discovery of chemical leads for next-generation chemoprotective antimalarials” (2018).

SMILES strings stand for the structures. pIC50: −log10 of the molar value.

The term pIC50 denotes the negative decadic logarithm of the IC50, by convention in mol/L. The IC90 is the concentration at which the effect reaches the 90% level. In the case of `N=C(NS(=O)(=O)c1cc(C(F)(F)F)cc(C(F)(F)F)c1)c1ccc(Cl)cc1`, the IC90 was above 7.66 µM. For the same compound, the pIC50 (HEPG2TOX_HILL_SLOPE 0.0636, HEPG2TOX_R_SQUARED 0.0519, read-out: LUCIFERASE INFECTION ASSAY - IC50) was below 5.12.
For the compound `Cc1ccc2cccc(Oc3ncnc4scc(-c5ccccc5)c34)c2n1`, the 90% effect concentration (IC90) was above 10 µM. Moreover, under “HEPG2TOX_HILL_SLOPE 0.0481, HEPG2TOX_R_SQUARED 0.388, PBLUC_HILL_SLOPE 1.34, PBLUC_R_SQUARED 0.656, read-out: LUCIFERASE INFECTION ASSAY - IC50”, the negative logarithm of the IC50 (pIC50) is 5.27.
As for `Cc1ncc(CO)c(/C=N/NC(=S)Nc2ccc(C(C)C)cc2)c1O`, the IC90 is above 10 µM. Where the note is “HEPG2TOX_HILL_SLOPE 0.0695, HEPG2TOX_R_SQUARED 0.0364, read-out: LUCIFERASE INFECTION ASSAY - IC50”, the pIC50 was below 5.00.
With `COc1ccc(C(N)c2csc(NC(=O)c3cc(C(C)(C)C)nn3Cc3ccccc3)n2)cc1` (stereo not given), the concentration for an effect of 90% (IC90) was determined as 4.86 µM. The pIC50 (HEPG2TOX_HILL_SLOPE 0.0688, HEPG2TOX_R_SQUARED 0.351, PBLUC_HILL_SLOPE 6.29, PBLUC_R_SQUARED 0.765, read-out: LUCIFERASE INFECTION ASSAY - IC50) is 5.46.
For `CCN(C(=O)CN(Cc1ccccc1)S(=O)(=O)/C=C/c1ccccc1)c1cccc2ccccc12`, the IC90 is above 10 µM. Moreover, the pIC50 (HEPG2TOX_HILL_SLOPE 0.0751, HEPG2TOX_R_SQUARED 0.254, read-out: LUCIFERASE INFECTION ASSAY - IC50) is below 5.00.
For the compound `Cc1cccc(C(=O)Nc2cc(S(=O)(=O)N3CCOCC3)ccc2N2CCCCC2)n1`, the IC90 was above 10 µM. Further, the pIC50 (HEPG2TOX_HILL_SLOPE 0.0521, HEPG2TOX_R_SQUARED 0.112, read-out: LUCIFERASE INFECTION ASSAY - IC50) is below 5.00.
With `COCC(C)n1c(C)cc(C(=O)COC(=O)c2cccc(C)c2C)c1C` (stereo not given), the IC90 was found to be 6.95 µM. Besides, the pIC50 (HEPG2TOX_HILL_SLOPE 0.0806, HEPG2TOX_R_SQUARED 0.082, PBLUC_HILL_SLOPE 4.05, PBLUC_R_SQUARED 0.617, read-out: LUCIFERASE INFECTION ASSAY - IC50) is 5.39.
Take `Cc1cc(C(=O)COC(=O)c2ccccc2OCc2ccccc2Cl)c(C)n1CC1CCCO1` (stereo not given): the IC90 was above 10 µM. The pIC50 (HEPG2TOX_HILL_SLOPE 0.0867, HEPG2TOX_R_SQUARED 0.214, read-out: LUCIFERASE INFECTION ASSAY - IC50) is below 5.00.
For `CC(C)=CC(=O)Nc1scc(-c2ccccc2)c1C(=O)OCC(=O)Nc1ccc([N+](=O)[O-])cc1Cl`, the IC90 is above 10 µM. Further, the pIC50 (HEPG2TOX_HILL_SLOPE 0.0482, HEPG2TOX_R_SQUARED 0.161, PBLUC_HILL_SLOPE 2.32, PBLUC_R_SQUARED 0.465, read-out: LUCIFERASE INFECTION ASSAY - IC50) is 5.27.
On to `Oc1cc2[nH]c3ccccc3c2cc1CN1CCN(Cc2cccs2)CC1`, for which the IC90 is above 10 µM. Besides, the pIC50 (HEPG2TOX_HILL_SLOPE 0.0488, HEPG2TOX_R_SQUARED 0.0234, PBLUC_HILL_SLOPE 24, PBLUC_R_SQUARED 0.263, read-out: LUCIFERASE INFECTION ASSAY - IC50) is 5.02.
In the case of `Cn1ccc2cc(-c3cnc4cnc(-c5ccc(C(=O)N6CCOCC6)cc5)cn34)ccc21`, the IC90 was above 7.54 µM. Moreover, the pIC50 (HEPG2TOX_HILL_SLOPE 0.0832, HEPG2TOX_R_SQUARED 0.45, PBLUC_HILL_SLOPE 3.74, PBLUC_R_SQUARED 0.552, read-out: LUCIFERASE INFECTION ASSAY - IC50) is 5.27.
With `Cc1cc(N2CCN(c3cnn(-c4nc5ccccc5[nH]4)c(=O)c3Cl)CC2)nc(C(C)C)n1`, the IC90 was determined as 7.33 µM. Also, the pIC50 (HEPG2TOX_HILL_SLOPE 0.0256, HEPG2TOX_R_SQUARED 0.0179, PBLUC_HILL_SLOPE 3.18, PBLUC_R_SQUARED 0.351, read-out: LUCIFERASE INFECTION ASSAY - IC50) was 5.43.
In the case of `CC1c2ccsc2CCN1C(=S)NC(=O)c1ccc(C(C)(C)C)cc1` (stereo not given), the IC90 is above 8.86 µM. Further, the pIC50 (HEPG2TOX_HILL_SLOPE 0.0482, HEPG2TOX_R_SQUARED 0.0333, read-out: LUCIFERASE INFECTION ASSAY - IC50) is below 5.05.
As to `O=C(Cc1csc(-c2ccccc2Cl)n1)Nc1cnc2ccccc2c1`, the IC90 was above 10 µM. In addition, the pIC50 (HEPG2TOX_HILL_SLOPE 0.041, HEPG2TOX_R_SQUARED 0.0816, read-out: LUCIFERASE INFECTION ASSAY - IC50) was below 5.00.
As to `Cc1ccc2nc(NC(=O)C3CCCCC3)c(C(=O)NC3CCCCC3)n2c1`, the IC90 is above 8.63 µM. The pIC50 (HEPG2TOX_HILL_SLOPE 0.0875, HEPG2TOX_R_SQUARED 0.133, PBLUC_HILL_SLOPE 0.199, PBLUC_R_SQUARED 0.0366, read-out: LUCIFERASE INFECTION ASSAY - IC50) was below 5.06.
Turning to `OCCNCc1cc(Cl)ccc1OCc1ccc(Cl)cc1Cl`, the IC90 was above 8.31 µM. Further, the pIC50 (HEPG2TOX_HILL_SLOPE 0.0281, HEPG2TOX_R_SQUARED 0.0269, read-out: LUCIFERASE INFECTION ASSAY - IC50) is below 5.08.
Regarding `COc1ccccc1-n1c(COc2ccccc2-c2ccccc2)nnc1SC(C(=O)NC(N)=O)C(C)C` (stereo not given), the 90% effect concentration (IC90) was above 10 µM. Further, the pIC50 (HEPG2TOX_HILL_SLOPE 0.0773, HEPG2TOX_R_SQUARED 0.0989, read-out: LUCIFERASE INFECTION ASSAY - IC50) is below 5.00.
With `O=C1NC(=S)S/C1=C\c1ccc(OCc2ccc(Cl)c(Cl)c2)cc1`, the IC90 is above 8.33 µM. In addition, the negative logarithm of the IC50 (pIC50) (HEPG2TOX_HILL_SLOPE 0.0732, HEPG2TOX_R_SQUARED 0.0803, read-out: LUCIFERASE INFECTION ASSAY - IC50) was below 5.08.
Take `N#Cc1ncn(CC(=O)NCC2(N3CCOCC3)CCCCC2)n1`: the IC90 is above 10 µM. The pIC50 (HEPG2TOX_HILL_SLOPE 0.0925, HEPG2TOX_R_SQUARED 0.157, read-out: LUCIFERASE INFECTION ASSAY - IC50) is below 5.00.
In the case of `O=C(c1ccc([N+](=O)[O-])o1)N1CCc2sccc2C1c1ccccc1` (stereo not given), the IC90 was above 10 µM. Besides, the pIC50 (HEPG2TOX_HILL_SLOPE 0.0396, HEPG2TOX_R_SQUARED 0.037, PBLUC_HILL_SLOPE 3.01, PBLUC_R_SQUARED 0.32, read-out: LUCIFERASE INFECTION ASSAY - IC50) was 5.18.
For the compound `O=C(NCCSCc1ccc(Cl)cc1Cl)c1cccs1`, the IC90 is 3.51 µM. Besides, the pIC50 (HEPG2TOX_HILL_SLOPE 0.0561, HEPG2TOX_R_SQUARED 0.0467, PBLUC_HILL_SLOPE 2.24, PBLUC_R_SQUARED 0.817, read-out: LUCIFERASE INFECTION ASSAY - IC50) was 5.88.
For `Cc1cccc(C(C)C)c1NC(=O)C(C)Sc1nc2scc(-c3ccccc3Cl)c2c(=O)n1C` (stereo not given), the IC90 worked out at 1.19 µM. Further, where the note is “HEPG2TOX_HILL_SLOPE 0.0632, HEPG2TOX_R_SQUARED 0.325, PBLUC_HILL_SLOPE 16, PBLUC_R_SQUARED 0.687, read-out: LUCIFERASE INFECTION ASSAY - IC50”, the pIC50 is 5.99.
On to `O=C(Nc1cccc(C(F)(F)F)c1)n1nccc1-c1cc(-c2ccccc2)no1`, for which the IC90 worked out at 3.32 µM. The pIC50 (HEPG2TOX_HILL_SLOPE 0.0838, HEPG2TOX_R_SQUARED 0.0659, PBLUC_HILL_SLOPE 13.2, PBLUC_R_SQUARED 0.221, read-out: LUCIFERASE INFECTION ASSAY - IC50) is 5.55.
With `CCOc1c(Br)cnn(-c2ccc(C)cc2)c1=O`, the IC90 is above 10.7 µM. The pIC50 (HEPG2TOX_HILL_SLOPE 0.0619, HEPG2TOX_R_SQUARED 0.0842, PBLUC_HILL_SLOPE 9.69, PBLUC_R_SQUARED 0.342, read-out: LUCIFERASE INFECTION ASSAY - IC50) was below 4.97.
In the case of `CC1CCCC(N=C2NN=C(c3c[nH]c(C(=O)N4CCCC4)c3)CS2)C1C` (stereo not given), the IC90 is above 10 µM. For the same compound, for the setting “HEPG2TOX_HILL_SLOPE 0.0793, HEPG2TOX_R_SQUARED 0.0179, read-out: LUCIFERASE INFECTION ASSAY - IC50”, the pIC50 is below 5.00.
With `O=C(NC1CC1)c1ccc(-c2cnc3cnc(-c4ccsc4)cn23)cc1`, the IC90 is above 9.16 µM. Moreover, where the note is “HEPG2TOX_HILL_SLOPE 0.0389, HEPG2TOX_R_SQUARED 0.0745, PBLUC_HILL_SLOPE 3.06, PBLUC_R_SQUARED 0.597, read-out: LUCIFERASE INFECTION ASSAY - IC50”, the negative-log IC50 (pIC50) is 5.14.
On to `COc1ccc(CN2CCN(c3nc4c(Cl)c(C)nn4c4ccccc34)CC2)cc1OC`, for which the IC90 was above 10 µM. The pIC50 (HEPG2TOX_HILL_SLOPE 0.0984, HEPG2TOX_R_SQUARED 0.313, PBLUC_HILL_SLOPE 1.53, PBLUC_R_SQUARED 0.0755, read-out: LUCIFERASE INFECTION ASSAY - IC50) is below 5.00.
On to `Cc1ccc(N(CC(=O)Nc2ccc(Cl)cc2)S(C)(=O)=O)cc1Cl`, for which the IC90 was above 8.52 µM. For the same compound, the negative logarithm of the IC50 (pIC50) (HEPG2TOX_HILL_SLOPE 0.0682, HEPG2TOX_R_SQUARED 0.0747, PBLUC_HILL_SLOPE 6.57, PBLUC_R_SQUARED 0.017, read-out: LUCIFERASE INFECTION ASSAY - IC50) was below 5.07.
Regarding `O=C(COc1ccc(F)cc1C(=O)c1cnn(-c2ccccc2)c1)Nc1ccc(Br)cc1F`, the IC90 was above 10 µM. For the same compound, the negative-log IC50 (pIC50) (HEPG2TOX_HILL_SLOPE 0.0675, HEPG2TOX_R_SQUARED 0.0289, PBLUC_HILL_SLOPE 1.95, PBLUC_R_SQUARED 0.148, read-out: LUCIFERASE INFECTION ASSAY - IC50) was below 5.00.
Consider `O=C(CC1Sc2ccccc2NC1=O)NCCCn1ccc2ccccc21` (stereo not given), for which the IC90 is 3.47 µM. Further, the pIC50 (HEPG2TOX_HILL_SLOPE 0.0908, HEPG2TOX_R_SQUARED 0.322, PBLUC_HILL_SLOPE 2.29, PBLUC_R_SQUARED 0.881, read-out: LUCIFERASE INFECTION ASSAY - IC50) was 5.88.
